Source: PMC6766947, “Multi-Armed 1,2,3-Selenadiazole and 1,2,3-Thiadiazole Benzene Derivatives as Novel Glyoxalase-I Inhibitors” (Molecules, 2019)

Target: T1, human recombinant Glo-I (rhGlo-I) (Homo sapiens, UniProt Q04760)
T1 construct: purchased R&D Systems
T1 sequence (Q04760 2-184 limits assumed): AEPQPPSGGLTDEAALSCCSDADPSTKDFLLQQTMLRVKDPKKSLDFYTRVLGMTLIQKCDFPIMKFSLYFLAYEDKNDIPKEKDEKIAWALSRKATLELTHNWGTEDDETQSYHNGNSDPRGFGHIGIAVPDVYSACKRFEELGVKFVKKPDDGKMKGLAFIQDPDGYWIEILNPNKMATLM
Assay: In vitro Glo-I enzyme inhibition assay (UV-Vis, 240 nm)
Assay type: biochemical
Settings: for IC50: rhGlo-I, triplicates, 240 nm, 200 s, 25 °C, pH 7.0–7.2
Protocol: A total of twelve synthesized multi-arm benzene derivatives of 1,2,3-selenadiazole and 1,2,3-thiadiazole by M. Al-Smadi et al. were selected for the present study. The in vitro inhibitory activity of the compounds against the human Glo-I enzyme was measured using double-beam UV-Vis spectrophotometer (Biotech Engineering Management Co. Ltd., UK).
The Glo-I inhibitory activity was determined as reported previously. Briefly, human recombinant Glo-I (rhGlo-I), provided by R&D Systems® Corporation, was reconstituted by dissolving 0.5 mg/mL of it in sterile, deionized water before storing at –70 °C. The tested compounds were dissolved in DMSO to 10 mM stock solution. The assay buffer was prepared by mixing 0.1 M sodium phosphate dibasic solution and 0.1 M sodium phosphate monobasic solution with a pH of 7.0–7.2. The substrate mixture was prepared by mixing a suitable volume of 0.1 M sodium phosphate assay buffer with 100 mM methylglyoxal solution and 100 mM reduced glutathione. Finally, the tested compounds were mixed with the assay buffer, substrate solution mixture, and the Glo-I enzyme in a cuvette at an appropriate tested concentration. Each compound was tested in triplicates at λmax = 240 nm for 200 s at 25 °C.

Structure (SMILES) | IC50 [nM] | activity relative to selenium containing counterpart (fold difference in Glo-I inhibitory activity, sulfur vs selenium analogue)
c1c(COc2ccc(-c3csnn3)cc2)cc(COc2ccc(-c3csnn3)cc2)cc1COc1ccc(-c2csnn2)cc1 [Compound 8] | 3000 ± 150 | 
c1cc(-c2csnn2)ccc1OCc1cc(COc2ccc(-c3csnn3)cc2)c(COc2ccc(-c3csnn3)cc2)cc1COc1ccc(-c2csnn2)cc1 [Compound 10] | 2400 ± 130 | eight times more active
c1cc(-c2c[se]nn2)ccc1OCc1c(COc2ccc(-c3c[se]nn3)cc2)c(COc2ccc(-c3c[se]nn3)cc2)c(COc2ccc(-c3c[se]nn3)cc2)c(COc2ccc(-c3c[se]nn3)cc2)c1COc1ccc(-c2c[se]nn2)cc1 [Compound 11] | 8300 ± 560 | 
c1cc(-c2csnn2)ccc1OCc1c(COc2ccc(-c3csnn3)cc2)c(COc2ccc(-c3csnn3)cc2)c(COc2ccc(-c3csnn3)cc2)c(COc2ccc(-c3csnn3)cc2)c1COc1ccc(-c2csnn2)cc1 [Compound 12] | 2670 ± 310 | 
